Read-outs that look alike come from different tables or passages of the source.

The nature of series [1]: Plasma pharmacokinetics after oral dosing in NRG mice. Type of series: in vivo. The settings on record: mouse; for Vd/F: read-out: Vz/F. Here is the method: Mice were dosed orally with ART631 at empirically determined maximally tolerated doses (MTDs) of 75 mg/kg ART631 as a single dose alone or 15 mg/kg as a multiple dose regimen (once daily x5), either alone or in combination with SOR (30 mg/kg/d) and VEN (150 mg/kg/d), for side-by-side comparison to the ART838, SOR and VEN combination evaluated previously ([20]). ART631, SOR, and VEN were mixed in vehicle and given as a single administration. Mice (n = 3/time point) were euthanized at 0.5, 1, 1.5, 2, 3, 4, 6, 8 and 12 h after dosing. ART631 was quantified in plasma as described below. Pharmacokinetic parameters were calculated from mean concentration-time data using non-compartmental methods in Phoenix WinNonlin version 8.3 (Certara, Princeton, NJ). The maximum plasma concentration (Cmax) and time to Cmax (Tmax) were the observed values. The AUClast was calculated using the log-linear trapezoidal method. AUC was extrapolated to infinity (AUCINF) by dividing the last quantifiable concentration by the terminal disposition rate constant (λz). The λz was determined from at least 3 points on the slope of the terminal phase of the concentration-time profile. The terminal half-life (T1/2) was determined by dividing 0.693 by λz. Apparent clearance (Cl/F) was calculated by dividing the dose administered by AUCINF. Apparent volume of distribution (V/F) was calculated by dividing Cl/F by λz. If the percent AUC extrapolated was >20% or the r^2 of λz was <0.85, the AUCINF, Cl/F, T1/2 and V/F were not reported.
The Method of Bailer was used to estimate the variance of AUC given the calculated variance of the mean concentration at each time point ([23]). A pairwise comparison utilizing Z test was used to determine whether there was a significant difference between ART631 exposures as expressed by AUClast ([24]). In all cases, p < 0.05 was considered statistically significant.
(§1) ART631 was extracted from 25 µL plasma or microsomal solutions with 100 µL acetonitrile containing artemisinin (i.e. the natural product) as internal standard. […] Mobile phase A was ammonium acetate (2mM) containing 0.1% formic acid, and mobile phase B was acetonitrile containing 0.1% formic acid. The gradient started with mobile phase B and was held at 40% for 0.5 minutes with a flow rate of 0.4 mL/min, then increased to 100% over 1.5 minutes and held for 2.0 minutes, and finally returned back to 40% mobile phase B and allowed to equilibrate for 2.0 minutes. An AB Sciex 5500 triple quadrupole mass spectrometer operated in positive electrospray ionization mode was used for the detection of ART631. For stability studies, the ratio of ART631 to the internal standard, artemisinin, was assessed. Calibration curves for ART631 were computed using the ratio of the peak area to that of the internal standard by using a quadratic equation with a 1/x^2 weighting function over the range of 8-1585 nM with dilutions of up to 1:10 (v/v).

A short description of series [2]: Stability in human plasma (EDTA). Type of series: in vitro ADME. The settings on record: 10 µM, 37°C, 1h. How it is done: The metabolic stability of ART631 was assessed in human and mouse plasma and liver microsomes (LM). For phase I microsomal stability assays, analogs (10 µM in <1% acetonitrile) were incubated in PBS containing liver microsomes, with or without cofactors ([22]). Microsomal controls (without cofactors) were used to determine non-enzymatic degradation. All experiments were incubated at 37°C for 1h and performed in duplicate. Reactions were stopped with acetonitrile and analyzed as described below.
as §1, with “Calibration curves for ART631 were computed using the ratio of the peak area to that of the internal standard by using a quadratic equation with a 1/x^2 weighting function over the range of 8-1585 nM with dilutions of up to 1:10 (v/v).” left out

For series [3], the system named is AML45 PDX. Briefly: luc-labeled AML45 patient-derived xenograft. In kind it is in vivo, NRG mice. To be noted: ART631 monotherapy p=0.0029. The source says:
Immunodeficient NOD-Rag1^nullIL2rg^null (NRG) mice were purchased from Jackson Laboratory (Bar Harbor, ME), bred and housed at the University of Maryland Baltimore. Similar to our previous publication ([20]). mice were transplanted IV with luc-labeled human AML cell lines or cryopreserved AML patient cells on day -10, and baseline total body luminescence was quantified on day 0 by Xenogen bioluminescence imaging (Xenogen IVIS Spectrum; PerkinElmer, Waltham, MA). Mice were allocated to treatment groups so that each group had similar average day 0 luminescence, then groups were administered drugs per oral (PO; gavage). Luminescence of each mouse was assessed over time and compared with that mouse’s day 0 luminescence (fold-change AML burden). Clinical behavior, appearance, weight, and survival were also monitored.
We then compared the efficacy of 15 mg/kg/d ART631 monotherapy, versus 150 mg/kg/d VEN plus 30 mg/kg/d SOR, versus ART631 combined with VEN plus SOR (i.e. SAV) at the previously indicated doses, using a luc-labeled AML45 PDX model ( Figure 9A ). […]
Figure 9 VEN plus SOR plus ART631 inhibited growth of an AML PDX. […] (A) After Xenogen quantification of baseline total body luminescence on day 0, mice were placed into balanced experimental groups prior to drug administration via gavage, then treated per our previously established MTD PO x 5 day schedule (5 days on, 9 days off). […]
Background: A xenograft is tissue or cells of one species grown in another, often human tumour cells in immunodeficient mice.

Series [4] concerns MOLM14. Briefly: alamarBlue growth inhibition, MOLM14. The settings on record: Homo sapiens, MOLM-14; MOLM14, 48h, alamarBlue, mean of 2 independent assays ± SD; read-out: IC50. In kind it is cell-based. How it is done:
Cytotoxicity was assessed using alamarBlue assays (Life Technologies, Grand Island, NY) following manufacturer’s guidelines. Cell death was verified by Annexin V/7-aminoactinomycin D (7AAD) staining (BioLegend, San Diego, CA) per manufacturer’s guidelines.
In this experiment, provided to show the entire concentration:response range, MOLM14 AML cells were cultured with a range of concentrations of artesunate (AS), ART838, ART631, and ART576 for 48h. Graph indicates growth inhibition relative to vehicle (DMSO)-treated controls by alamarBlue absorbance assays. Data points and error bars represent mean and SD of 3 independent experiments done in triplicate.
(In general: Resazurin is reduced to fluorescent resorufin, in cell work by metabolically active cells.)

Where [5] appears, read: 15 mg/kg/day, NRG mice plasma, 15 mg/kg/d PO qd x 5 alone, after 5th dose.
[6] abbreviates: NRG mice plasma, 15 mg/kg/d PO qd x 5 in SAV (SOR 30 mg/kg/d, VEN 150 mg/kg/d), after 5th dose.
Where [7] appears, read: NRG mice plasma, 75 mg/kg PO x 1.

The AUC(0-t) is the area under the concentration-time curve up to a stated or last time point. Broadly, the CL/F is clearance divided by bioavailability, as obtained after extravascular dosing. A word on the Cmax: it is the peak of the concentration-time curve. One may read the Tmax as the time at which the peak concentration occurs. As usually defined, the IC50 is the concentration that gives 50% inhibition. Consider `C=CCO/N=C(/C[C@H]1O[C@@H]2O[C@@]3(C)CC[C@H]4[C@H](C)CC[C@@H]([C@H]1C)[C@@]24OO3)[C@H]1O[C@@H]2O[C@@]3(C)CC[C@H]4[C@H](C)CC[C@@H]([C@H]1C)[C@@]24OO3` [ART631], for which the half-life in series [1] (NRG, plasma, oral, ART631 alone, single and multiple dose regimens, read-out: half-life) was 66 to 102 min; in series [1] (15 mg/kg/day, NRG mice plasma, 15 mg/kg/d PO qd x 5 alone, after 5th dose, read-out: T1/2 (converted)) it was 102 min; in series [1] (NRG mice plasma, 15 mg/kg/d PO qd x 5 in SAV (SOR 30 mg/kg/d, VEN 150 mg/kg/d), after 5th dose, read-out: T1/2 (converted)), 144 min; in series [1] (NRG mice plasma, 75 mg/kg PO x 1, read-out: T1/2 (converted)) it was 66 min. Also, the AUC(0-t) in series [1] (setting [5]) worked out at 2.74 µM·h; in series [1] (setting [6]), 3.73 µM·h; in series [1] (setting [7]), 22.9 µM·h. For the same compound, the CL/F in series [1] (setting [5]) is 145 mL/min/kg; in series [1] (setting [6]), 102 mL/min/kg; in series [1] (setting [7]), 86.7 mL/min/kg. The Cmax worked out at 935 nM in series [1] (setting [5]), 719 nM in series [1] (setting [6]) and 13100 nM in series [1] (setting [7]). The Tmax amounted to 2 h in series [1] (setting [5]), 2 h in series [1] (setting [6]) and 1.5 h in series [1] (setting [7]). The Vd/F was 21.5 L/kg in series [1] (setting [5]), 21.3 L/kg in series [1] (setting [6]) and 8.4 L/kg in series [1] (setting [7]). In series [2], the “percentage remaining, Plasma (EDTA) Human” value is 60%. Moreover, the survival versus vehicle result in series [3] was “statistically significant increase in survival”. The IC50 in series [4] turned out to be 32 ± 4 nM.

Values taken from publication PMC8811960, “A Novel 2-Carbon-Linked Dimeric Artemisinin With Potent Antileukemic Activity and Favorable Pharmacology” (Frontiers in Oncology, 2022).
